Measured values reported in patent publication US20240327423A1, “A SERIES OF PYRROLE DERIVATIVES AND THEIR PREPARATION METHOD AND THERAPEUTIC USE” (SHENZHEN SUNGENING BIO-MEDICAL CO., LTD, priority 2020, published 2024).
Converted amounts (≈) assume the structure as drawn. “And” between values parts separate entries of the source, which are not always exact repeats. Equal values may be shown once. Read-outs that look alike come from different tables or passages of the source.

Legend:
[1] = system: Aspergillus flavus (ATCC MYA-1004); test: Measurement of minimum inhibitory concentration (MIC), ATCC MYA-1004; type: cell-based; details: Aspergillus flavus ATCC MYA-1004, 35° C., 48 hours
Method: New streaks are made with glycerol stock solution of the strains of Aspergillus fumigatus (ATCC MYA-4609/AF 293/CBS 101355) on Sabouraud's dextrose agar (SDA), incubate at 35° C. and a humidity of 40-70% for 72 hours. Other strains are processed as the same as AF293.
RPMI1640: one packet of RPMI1640 powder is dissolved in 1 L purified water and mixed well, add 0.165M MOPS, adjust the pH to 7.0, sterilize by filtration with 0.22 um membrane, and store at 4° C. for no more than 3 months.
Physiological saline: weigh 9 g of sodium chloride powder and dissolve in 1 L of purified water, and mixed well. Sterilize at 121° C. for 30 min, store at room temperature (RT) for no more than 1 week.
Dissolve the test compound and stock solution of one control compound with DMSO and obtain solutions at a concentration of 12.8 mg/mL
The maximum concentration of each compound is 0.8 mg/mL (e.g., 150 μL of dimethyl sulfoxide+10 uL of 12.8 mg/mL compound/control). Column 1 is filled with 40 μL of compound and columns 2 to 11 with 20 μL of dimethyl sulfoxide. Transfer 20 μL of compound from column 1 to column 2 to dilute the concentration. Repeat the above steps up to column 11 to give 2× serial dilutions.
2 μL of the above 2× serial dilutions are injected into each hole of the corresponding test plate using a multichannel pipette.
Drop 5 ml of saline on the Aspergillus fumigatus SDA plate. The spores were carefully wiped off from the surface of the plate with an L-shaped coating rod. Then the suspension is transferred into a sterile tube. After shaking, let the tube stand for 5 to 10 minutes. Count the number of spores in the upper suspension with a hemocytometer and check the purity. Adjust the inoculum concentration to 0.2-2.5×10^4 spores/mL.
Inject 198 μL of diluted inoculum into each holes of the corresponding test plate using a multichannel pipette.
Incubate at 35° C. for 48 hours.
To facilitate scoring of the presence or absence of growth on the wall, a magnifying glass is used. The tested 96-well microplates were photographed and the optical density at 530 nm is read with an enzyme marker (Tecan Spark).

[2] = Pharmacokinetic test in SD rats, single oral administration; type: in vivo; details: 10 mg/kg, single oral administration 10 mg/kg, test compound mixed with F901318, plasma; for Cmax: read-out: Cmax; for Tmax: read-out: Tmax; for half-life: read-out: T½ (converted)
Method: Pharmacokinetic study is performed on SD rats receiving single oral administration of each test compound mixed with F901318 (10 mg/kg, 3 rats per group). Test compounds and F901318 are dissolved with […]+10% solutol+85% saline, vortexed for 1-2 mins and ultra-sonicated for 5-10 mins to form a colorless clear drug solution. The animals are fasted overnight before oral administration, and resumed feeding 4 hours after administration. After oral administration, pharmacokinetic samples are collected from orbital blood of SD rats at 0.083 h, 0.25 h, 0.5 h, 1 h, 2 h, 4 h, 6 h, 8 h, and 24 h, and three whole blood samples are collected at each time point in a volume of 0.2-0.3 mL. Blood samples are placed on ice immediately after collected, and the plasma is separated by centrifugation within 15 min (centrifugation conditions: 8000 rpm, 1 min, and at room temperature).
The collected plasma is stored at −20° C. prior to analysis. Transfer 20 μL of plasma sample into an 0.5 mL EP tube, add 200 μL of working internal standard solution (blank group is without internal standard, using the same volume of solvent instead), vortex and mix for 3 min centrifuge at 13500 rpm for 10 min, take 100 μL of supernatant and analyze with LC-MS/MS.

[3] = Liver microsomal stability test, human; type: in vitro ADME; details: Human liver microsomes; for CLint scaled / half-life: 0.5 mg/mL protein, 37° C., NADPH
Method: (§1) • 1: Add 10 μL of working solutions of test product or reference product and 80 μL of microsomal working solution (liver microsomal protein concentration of 0.5 mg/mL) to wells of TO, T5, T10, T20, T30, T60, and NCF60, and only microsomal working solution is added to the Blank60 wells. Then the samples of Blank60, T10, T20, T30 and T60, except for TO and NCF60, are placed in a water bath set at 37° C. and incubate for approximately 10 mins; • 2: Add 300 μL of termination solution (acetonitrile solution containing 200 ng/mL tolbutamide and 200 ng/mL labetalol) to Sample TO, followed by 10 ul of NADPH regeneration system working solution; • 3: After incubation of Blank60, T5, T10, T20, T30 and T60 on incubation plates, add 10 μL of NADPH regeneration system working solution to each sample well to start the reaction, and 10 uL of 100 mM potassium phosphate buffer is add to the NCF60 sample wells; • 4: After incubation for appropriate times (e.g., 5, 10, 20, 30 and 60 mins), 300 μL of termination solution is add to each sample well of test product and reference product on Blank60, T5, T10, T20, T30, T60 and NCF60 plates, respectively, to terminate the reaction. • 5: All sample plates are shaken well and centrifuged at 4000 rpm for 20 min, take 100 μL of the supernatant of the test product or reference product, dilute in 300 μL of pure water for LC-MS/MS analysis, respectively. • 6: Data analysis, T½ and CLint(mic) (μL/min/mg) values are calculated based on the first-order elimination kinetics, and the equations of first-order elimination kinetics are: […]

[4] = Liver microsomal stability test, mouse; type: in vitro ADME; details: Mouse liver microsomes; for CLint scaled / half-life: 0.5 mg/mL protein, 37° C., NADPH
Method: as §1

[5] = SD, rat, plasma, po, read-out: AUC

| SMILES | MIC [1] [ng/mL] | AUC [2, 5] [ng·h/mL] | Cmax ([2]; SD, rat, plasma, po) [ng/mL] | Tmax ([2]; SD, rat, plasma, po) [min] | half-life ([2]; SD, rat, plasma, po) [min] | CLint scaled [3] [mL/min/kg] | half-life [3] [min] | Remaining, (T = 60 min) [3] [%] | CLint scaled [4] [mL/min/kg] | half-life [4] [min] | Remaining, (T = 60 min) [4] [%] | AUC [2] |
| --- | --- | --- | --- | --- | --- | --- | --- | --- | --- | --- | --- | --- |
| Cc1cc(-c2ccccc2)c(C(=O)C(=O)Nc2cc(F)c3c(c2)OC[C@H]2CN(c4ncc(F)cn4)CCN32)n1C [Example 5] | 4 (≈ 7.35 nM) | 16000 | 1930 | 60 | 257 | 48.8 | 25.6 | 20.4 | 115 | 21.8 | 15.7 |  |
| Cc1cc(-c2ccccc2)c(C(=O)C(=O)Nc2ccc3c(c2)C[C@H]2CN(c4ncc(F)cn4)CCN32)n1C [Example 33, (S)-2-(1,5-dimethyl-3-phenyl-1H-pyrrol-2-yl)-N-(2-(5-fluoropyrimidin-2-yl)-1,2,3,4,10,10a-hexahydropyrazino[1,2-a]indol-8-yl)-2-oxoacetamide] | 8 (≈ 15.7 nM) | 36100 | 3490 | 60 | 451 | 25.9 | 48.2 | 43.4 | 50.2 | 49.6 | 44.8 |  |
| Cc1cc(-c2ccccc2)c(C(=O)C(=O)Nc2ccc(N3CCN(c4ncc(F)cn4)CC3)cc2)n1C [Example F901318, reference compound] | 4 (≈ 8.02 nM) | 7540 |  |  |  | 37.8 | 33 | 27.7 | 98.9 | 25.2 | 18.7 | 9170.038 ng·h/mL and 7652.703 ng·h/mL and 9641.325 ng·h/mL |
